From ChEMBL document CHEMBL1201862, “PubChem BioAssay data set” (2004)
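A five-concentration, 48-hour dose response in 96-well plates underlies each endpoint, interpolated linearly between surrounding concentrations. Here, GI50 denotes the concentration required for 50% inhibition of growth.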 Active and inactive are the calls of the source. Rule as the data show it: active = GI50 up to about 1.1 µM and inactive = higher.

Tests used:
Experiment in all cases: NCI-60 cell line screen, 48 h
SK-MEL-2 = tested on: SK-MEL-2
HCC 2998 = tested on: HCC 2998
SF-295 = tested on: SF-295
HOP-92 = tested on: HOP-92
K562 = tested on: K562
NCI-H522 = tested on: NCI-H522
COLO 205 = tested on: COLO 205
Malme-3M = tested on: Malme-3M
TK-10 = tested on: TK-10
HCT-116 = tested on: HCT-116
UO-31 = tested on: UO-31
IGROV-1 = tested on: IGROV-1
OVCAR-4 = tested on: OVCAR-4
T47D = tested on: T47D
NCI-H226 = tested on: NCI-H226
HOP-62 = tested on: HOP-62
LOX IMVI = tested on: LOX IMVI
ACHN = tested on: ACHN
SF-539 = tested on: SF-539
MOLT-4 = tested on: MOLT-4

Compound | GI50 (SK-MEL-2) | GI50 (HCC 2998) | GI50 (SF-295) | GI50 (HOP-92) | GI50 (K562) | GI50 (NCI-H522) | GI50 (COLO 205) | GI50 (Malme-3M) | GI50 (TK-10) | GI50 (HCT-116) | GI50 (UO-31) | GI50 (IGROV-1) | GI50 (OVCAR-4) | GI50 (T47D) | GI50 (NCI-H226) | GI50 (HOP-62) | GI50 (LOX IMVI) | GI50 (ACHN) | GI50 (SF-539) | GI50 (MOLT-4)
N=C(N)N/N=C\c1c(-c2cccc([N+](=O)[O-])c2)nc2sccn12 | 2.37 µM (inactive) | 2.39 µM (inactive) | 2.64 µM (inactive) | 5.93 µM (inactive) | 2.8 µM (inactive) | 3.45 µM (inactive) | 2.39 µM (inactive) | 24.4 µM (inactive) | 2.47 µM (inactive) | 7.73 µM (inactive) | 18.5 µM (inactive) | 15 µM (inactive) | 1.76 µM (inactive) | 1.62 µM (inactive) | 2.68 µM (inactive) | 3.54 µM (inactive) | 3.89 µM (inactive) | 2.86 µM (inactive) | 17.9 µM (inactive) | 1.92 µM (inactive)
C/C(=C\c1ccc(Cl)cc1)C(C)(C)C(=O)O | > 100 µM (inactive) | > 100 µM (inactive) | > 100 µM (inactive) | > 100 µM (inactive) | 1.95 µM (inactive) | > 100 µM (inactive) | > 100 µM (inactive) | > 100 µM (inactive) | > 100 µM (inactive) | > 100 µM (inactive) | > 100 µM (inactive) | > 100 µM (inactive) | > 100 µM (inactive) | > 100 µM (inactive) | > 100 µM (inactive) | > 100 µM (inactive) | – | > 100 µM (inactive) | > 100 µM (inactive) | > 100 µM (inactive)
CC1(C)CNC(=O)C2(/C=N/C(C)(C)CNC(=O)C3(/C=N/1)CCCO3)CCCO2 (configuration not stated) | – | > 10 µM (inactive) | > 10 µM (inactive) | > 10 µM (inactive) | > 10 µM (inactive) | > 10 µM (inactive) | > 10 µM (inactive) | > 10 µM (inactive) | > 10 µM (inactive) | > 10 µM (inactive) | – | > 10 µM (inactive) | > 10 µM (inactive) | > 10 µM (inactive) | – | > 10 µM (inactive) | – | > 10 µM (inactive) | > 10 µM (inactive) | > 10 µM (inactive)
N#C/C(=C\c1ccc(Br)cc1)c1nc(-c2cc3ccccc3oc2=O)cs1 | 17.1 µM (inactive) | 19.6 µM (inactive) | 18.5 µM (inactive) | 11 µM (inactive) | 37.2 µM (inactive) | 7.98 µM (inactive) | > 50 µM (inactive) | 10.5 µM (inactive) | 10.2 µM (inactive) | 17.5 µM (inactive) | 20.2 µM (inactive) | 12.3 µM (inactive) | 17.2 µM (inactive) | 22.7 µM (inactive) | 11.9 µM (inactive) | 8.73 µM (inactive) | 24.8 µM (inactive) | 10.8 µM (inactive) | 14 µM (inactive) | > 50 µM (inactive)
CC(=O)Nc1ccc(/C=C/C(=O)N2CC(CCl)c3c2cc(N)c2ccccc32)cc1 (configuration not stated) | < 0.005 µM (active) | < 0.005 µM (active) | < 0.005 µM (active) | < 0.005 µM (active) | 0.0211 µM (active) | < 0.005 µM (active) | 0.00893 µM (active) | < 0.005 µM (active) | < 0.005 µM (active) | < 0.005 µM (active) | < 0.005 µM (active) | < 0.005 µM (active) | 0.0226 µM (active) | 0.01 µM (active) | < 0.005 µM (active) | < 0.005 µM (active) | < 0.005 µM (active) | < 0.005 µM (active) | < 0.005 µM (active) | < 0.005 µM (active)
COc1ccc(/C=C2\N=C3N(Cc4ccccc4)C=C(N)N3C2=O)cc1 | > 100 µM (inactive) | > 100 µM (inactive) | 61.2 µM (inactive) | 58.7 µM (inactive) | > 100 µM (inactive) | 49.1 µM (inactive) | > 100 µM (inactive) | > 100 µM (inactive) | > 100 µM (inactive) | > 100 µM (inactive) | 46.6 µM (inactive) | 69.3 µM (inactive) | > 100 µM (inactive) | > 100 µM (inactive) | 55 µM (inactive) | 39.3 µM (inactive) | > 100 µM (inactive) | > 100 µM (inactive) | > 100 µM (inactive) | > 100 µM (inactive)
COc1ccc(-c2cc(C(O)C3CCCCN3)c3ccccc3n2)cc1 (configuration not stated) | 6.12 µM (inactive) | 2.19 µM (inactive) | 14.7 µM (inactive) | 2.86 µM (inactive) | 2.54 µM (inactive) | 7.05 µM (inactive) | 1.89 µM (inactive) | 13.6 µM (inactive) | 10.4 µM (inactive) | 9.35 µM (inactive) | 3.59 µM (inactive) | 8.45 µM (inactive) | 13.7 µM (inactive) | 4 µM (inactive) | 7.06 µM (inactive) | 11.7 µM (inactive) | 2.62 µM (inactive) | 11.9 µM (inactive) | 10.1 µM (inactive) | 3.59 µM (inactive)
N#Cc1c(N2CCOCC2)ncn(-c2ccccc2)c1=O | > 100 µM (inactive) | > 100 µM (inactive) | > 100 µM (inactive) | > 100 µM (inactive) | > 100 µM (inactive) | – | > 100 µM (inactive) | – | – | > 100 µM (inactive) | 59.4 µM (inactive) | 63.4 µM (inactive) | – | > 100 µM (inactive) | > 100 µM (inactive) | > 100 µM (inactive) | > 100 µM (inactive) | > 100 µM (inactive) | > 100 µM (inactive) | > 100 µM (inactive)
CC1(C)N=C(N)N=C(N)N1c1ccc(Cl)cc1 | 10 µM (inactive) | 9.02 µM (inactive) | 3.33 µM (inactive) | 24.1 µM (inactive) | 0.317 µM (active) | 3.99 µM (inactive) | 7.06 µM (inactive) | 26.2 µM (inactive) | 48.8 µM (inactive) | 4.17 µM (inactive) | 47.2 µM (inactive) | 2.23 µM (inactive) | > 100 µM (inactive) | 35.1 µM (inactive) | 85.5 µM (inactive) | 9.02 µM (inactive) | 1.34 µM (inactive) | 5.16 µM (inactive) | 4.42 µM (inactive) | 1.71 µM (inactive)
CCOP(=O)(OCC)/C(C#N)=C/c1cccn1Cc1ccccc1 | 21.3 µM (inactive) | 35.3 µM (inactive) | 29.6 µM (inactive) | 13.5 µM (inactive) | 28.2 µM (inactive) | 23.8 µM (inactive) | 21.5 µM (inactive) | 32.3 µM (inactive) | 40.9 µM (inactive) | 17 µM (inactive) | 24.4 µM (inactive) | 26.1 µM (inactive) | – | 16.9 µM (inactive) | 20.7 µM (inactive) | 40 µM (inactive) | 20.8 µM (inactive) | 34.4 µM (inactive) | 18.5 µM (inactive) | 17.2 µM (inactive)
C[C@@H](CC(O)C(O)C(C)(C)O)C1CCC23CC12CCC1[C@@]2(C)CCC(O)C(C)(C)C2CC(OC2OC(CO)C(O)C(O)C2O)[C@]13C (some centres not stated) | > 10 µM (inactive) | > 10 µM (inactive) | > 10 µM (inactive) | > 10 µM (inactive) | > 10 µM (inactive) | > 10 µM (inactive) | > 10 µM (inactive) | > 10 µM (inactive) | > 10 µM (inactive) | > 10 µM (inactive) | > 10 µM (inactive) | > 10 µM (inactive) | > 10 µM (inactive) | > 10 µM (inactive) | > 10 µM (inactive) | > 10 µM (inactive) | > 10 µM (inactive) | > 10 µM (inactive) | > 10 µM (inactive) | > 10 µM (inactive)
Sc1nn2c(COc3cc(Cl)c(OCc4nnc5sc(S)nn45)cc3Cl)nnc2s1 | > 100 µM (inactive) | 36.1 µM (inactive) | > 100 µM (inactive) | 38.9 µM (inactive) | 33.7 µM (inactive) | 20.1 µM (inactive) | > 100 µM (inactive) | 40.1 µM (inactive) | > 100 µM (inactive) | 46 µM (inactive) | 31.3 µM (inactive) | 41.6 µM (inactive) | 51.8 µM (inactive) | 26 µM (inactive) | > 100 µM (inactive) | > 100 µM (inactive) | 32.8 µM (inactive) | 36.1 µM (inactive) | 87.5 µM (inactive) | 31.3 µM (inactive)
CCCCCCCC/C=C\CCCCCCCCNc1ccn(C2OC(COP(=O)(O)OC3CC(n4cc(F)c(=O)[nH]c4=O)OC3CO)C(O)C2O)c(=O)n1 (configuration not stated) | > 100 µM (inactive) | > 100 µM (inactive) | 0.638 µM (active) | 7.93 µM (inactive) | 2.52 µM (inactive) | > 53.8 µM (inactive) | > 47.3 µM (inactive) | 13.2 µM (inactive) | > 100 µM (inactive) | 0.329 µM (active) | 0.198 µM (active) | > 26.7 µM (inactive) | > 91.8 µM (inactive) | 36.3 µM (inactive) | > 28.4 µM (inactive) | < 0.0255 µM (active) | 0.122 µM (active) | 0.0177 µM (active) | < 0.0484 µM (active) | 0.471 µM (active)
COc1cc(C2c3[nH]c4ccccc4c3[C@@H](Nc3ccc(F)cc3)[C@H]3COC(=O)N23)cc(OC)c1O (some centres not stated) | – | 1.58 µM (inactive) | 0.794 µM (active) | 2.26 µM (inactive) | 1.45 µM (inactive) | – | – | 2.49 µM (inactive) | 1.97 µM (inactive) | 1.89 µM (inactive) | 1.09 µM (active) | 1.32 µM (inactive) | 2.55 µM (inactive) | 2.25 µM (inactive) | 0.815 µM (active) | 1.01 µM (active) | 1.21 µM (inactive) | 0.248 µM (active) | 1.26 µM (inactive) | 0.287 µM (active)
